Assay results published in patent US20230346796A1 (priority 2010, published 2023).
Converted amounts (≈) assume the structure as drawn. “And” between values parts separate entries of the source, which are not always exact repeats. Equal entries are not always repeated. Where two headings read alike, the source gives them in different places.

Legend:
[1] = human, in vivo
[2] = test system: patients undergoing a colonoscopy; conditions: for Success rate n/N (%): Phase IIb (Study CNS7056-004); for Time to ready for discharge, Mean (SD): after last injection, first of three consecutive Aldrete scores of ≥ 9; for Time to ready for discharge, Mean (SD) / Time to fully alert, Mean (SD): ITT population; for Time to fully alert, Mean (SD): first of three consecutive MOAA/S scores of 5 after the last injection; for Time to Procedure Start, mean (SD): after initial dose
[3] = human, in vivo; remark: listed apart in the source
[4] = test system: healthy volunteers and patients undergoing a colonoscopy; assay: animal or person; format: in vivo, human; conditions: for EC50: Homo sapiens, read-out: EC50, theta (RSE%)
[5] = Physiologically-based population pharmacokinetic analysis of CNS 7056 (Studies CNS 7056-001 and CNS 7056-002); conditions: for V3: arterial; for clearance: human, plasma, intravenous
[6] = test system: procedural sedation; conditions: Phase II, cited from earlier work
[7] = test system: procedural sedation; conditions: Phase III, cited from earlier work
[8] = highest dose regimen (8.0/3.0 mg)
[9] = lowest dose regimen (5.0/3.0 mg)
[10] = middle dose regimen (7.0/2.0 mg)
[11] = Run 142S, Lung/Central, 3 compartments
[12] = Run 144S, Lung/Liver, 4 compartments

## COC(=O)CC[C@@H]1N=C(c2ccccn2)c2cc(Br)ccc2-n2c(C)cnc21 [CNS 7056, 3-[(4S)-8-bromo-1-methyl-6-(2-pyridinyl)-4H-imidazo[1,2-a][1,4]benzodiazepin-4-yl] propionic methyl ester]
[1]
  Body weight as predictor of systemic clearance: not a statistically significant predictor
[2]; 7.0 mg initial / 2.0 mg top-ups (middle dose regimen), 40 patients
  Success rate n/N (%) (ITT): 38/40 (95.0%), p = 0.025
[2]; 5.0/3.0 mg
  Success rate n/N (%): 39/40 (97.5%)
  Time to ready for discharge, Mean (SD): 13.5 (4.83) mins
  Time to fully alert, Mean (SD): 13.3 (7.21) mins
[2]; 5.0/3.0
  Time to Procedure Start, mean (SD): 2.65 (1.42) minutes
[2]; 7.0/2.0 mg
  Success rate n/N (%): 38/40 (95.0%)
  Time to Procedure Start, mean (SD): 3.03 (2.17) minutes
  Time to ready for discharge, Mean (SD): 14.0 (6.28) mins
  Time to fully alert, Mean (SD): 11.3 (5.69) mins
[2]; 8.0/3.0 mg
  Success rate n/N (%): 37/40 (92.5%)
  Time to Procedure Start, mean (SD): 2.23 (1.44) minutes
  Time to ready for discharge, Mean (SD): 16.8 (7.54) mins
  Time to fully alert, Mean (SD): 13.6 (7.48) mins
[2]; [8]
  recovery to fully alert: 13.6 min
  time to discharge: 16.8 min
[2]; human, in vivo
  related AESIs (adverse events of special interest): 10
[2]; in vivo
  Success rate n/N (%) (ITT): 95%
  patients requiring manual or mechanical ventilation: no patient required manual or mechanical ventilation
  time to fully alert compared to Midazolam: shorter
[2]; [9]
  recovery to fully alert: 13.3 min
  time to discharge: 13.5 min
[2]; [10]
  recovery to fully alert: 11.3 min
  time to discharge: 14 min
[3]
  V4: 21.59 I
[4]; 1 min
  EC50: 0.332 µg/mL (≈ 0.756 µM)
[4]; 2 min
  EC50: 0.325 µg/mL (≈ 0.74 µM)
[4]
  EC50: 0.369 µg/mL (≈ 0.84 µM)
[4]; in vivo
  EMAX: 5.0
  EMAX, fitted theta (RSE%): 4.88 (1.20) and 4.85 (0.87)
  EMIN (first line so headed), eta IIV (RSE%): 29.73 (15.2) and 28.87 (11.7)
  EMIN (second line so headed), eta IIV (RSE%): 94.18 (38.7)
  Hill Coefficient (γ), theta (RSE%): 3.16 (8.82) and 4.64 (8.81) and 3.92 (6.76) and 3.9 (7.10) and 3.93 (6.81)
  Hill Coefficient, eta IIV (RSE%): 54.72 (24.0) % and 57.77 (24.8) % and 50.35 (22.3) % and 51.71 (22.7) % and 48.59 (21.4) % and 59.37 (25.3) %
  Hill coefficient: 4.03 and 6.627
  Hill coefficient, eta IIV (RSE%): 53.17 (23.0) and 69.49 (30.2)
  Hill coefficient, theta (RSE%): 4.20 (7.47) and 4.62 (8.41)
  IIV for all three pharmacodynamic parameters (EC50, ke0, Hill coefficient): approximately 40%
  increase in EC50 caused by scoping-factor: 10-12%
  increase in EC50 during one- and two-minute spikes of increased MOAA/S score: approximately 30%
  ke0: 13.3 h⁻¹ and 12.17 h⁻¹
  typical Hill coefficient: 4.03
[5]; Run 128S, Lung, 3 compartments
  Blood/Plasma Cardiac Flow, theta (RSE%): 173 (3.37) l/h
  Central Volume, eta IIV (RSE%): 146.9 (52.9) %
  Central Volume, theta (RSE%): 1.71 (15.2) I
  Deep Volume(5), theta (RSE%): 23.4 (4.57) I
  Deep Volume, eta IIV (RSE%): 22.55 (9.94) %
  Inter-Tissue Clearance(4), theta (RSE%): 74.6 (3.29) I/h
  Inter-Tissue Clearance(5), theta (RSE%): 25.7 (6.18) I/h
  Peripheral Volume(4), theta (RSE%): 13.5 (9.18) I
  Peripheral Volume, eta IIV (RSE%): 50.10 (18.0) %
  Pulmonary Clearance, eta IIV (RSE%): 14.35 (6.07) %
  Pulmonary Clearance, theta (RSE%): 49.1 (2.02) I/h
[5]; Run 135S, Lung, 4 compartments
  Blood/Plasma Cardiac Flow, theta (RSE%): 174 (3.59) l/h
  Central Volume, eta IIV (RSE%): 190.2 (66.8) %
  Central Volume, theta (RSE%): 1.24 (19.3) I
  Deep Volume(5), theta (RSE%): 23.8 (4.78) I
  Deep Volume, eta IIV (RSE%): 23.44 (10.3) %
  Deeper Volume(6), theta (RSE%): 12 (20.4) I
  Inter-Tissue Clearance(4), theta (RSE%): 68.5 (5.45) I/h
  Inter-Tissue Clearance(5), theta (RSE%): 42 (5.57) I/h
  Inter-Tissue Clearance(6), theta (RSE%): 3.12 (13.2) I/h
  Peripheral Volume(4), theta (RSE%): 8.14 (12.8) I
  Peripheral Volume, eta IIV (RSE%): 71.40 (25.4) %
  Pulmonary Clearance, eta IIV (RSE%): 14.42 (6.13) %
  Pulmonary Clearance, theta (RSE%): 48.7 (2.00) I/h
[5]; [11]
  Blood/Plasma Cardiac Flow, theta (RSE%): 177 (3.54) l/h
  Central Volume, eta IIV (RSE%): 143.6 (52.2) %
  Central Volume, theta (RSE%): 1.93 (15.8) I
  Deep Volume(5), theta (RSE%): 23.1 (4.58) I
  Deep Volume, eta IIV (RSE%): 22.59 (10.0) %
  Extra-pulmonary Clearance, theta (RSE%): 8.53 (52.4) I/h
  Inter-Tissue Clearance(4), theta (RSE%): 72.4 (3.61) I/h
  Inter-Tissue Clearance(5), theta (RSE%): 25.3 (6.16) I/h
  Peripheral Volume(4), theta (RSE%): 13.4 (9.32) I
  Peripheral Volume, eta IIV (RSE%): 50.48 (18.2) %
  Pulmonary Clearance, eta IIV (RSE%): 17.12 (8.97) %
  Pulmonary Clearance, theta (RSE%): 44.5 (6.11) I/h
[5]; [12]
  Blood/Plasma Cardiac Flow, theta (RSE%): 175 (2.68) l/h
  Central Volume, eta IIV (RSE%): 368.5 (105.) %
  Central Volume, theta (RSE%): 0.834 (15.8) I
  Deep Volume(5), theta (RSE%): 22.7 (5.28) I
  Deep Volume, eta IIV (RSE%): 24.10 (10.9) %
  Deeper Volume(6), theta (RSE%): 10.9 (16.7) I
  Extra-pulmonary Clearance, theta (RSE%): 6.15 (49.7) I/h
  Inter-Tissue Clearance(4), theta (RSE%): 46.2 (7.27) I/h
  Inter-Tissue Clearance(5), theta (RSE%): 40 (5.12) I/h
  Inter-Tissue Clearance(6), theta (RSE%): 3.07 (15.1) I/h
  Peripheral Volume(4), theta (RSE%): 6.47 (13.5) I
  Peripheral Volume, eta IIV (RSE%): 90.06 (30.2) %
  Pulmonary Clearance, eta IIV (RSE%): 16.22 (7.32) %
  Pulmonary Clearance, theta (RSE%): 45.0 (4.24) I/h
[5]; 0.65 x weight/70, Geom. Mean (Typical Value)
  V3: 0.717 I
[5]; 0.65 x weight/70, Subject 1210
  V3: 0.786 I
[5]; 0.65 × weight/70, Geom. Mean (Typical Value)
  V3: 0.717 L
[5]; 0.65 × weight/70, Subject 1210
  V3: 0.786 L
[5]; both, Clearance, Geom. Mean (Typical Value)
  clearance: 819 mL/min
[5]; both, systemic clearance
  clearance: ~1000 mL/min
[5]; Clearance, Subject 1210
  clearance: 732 mL/min
[5]; modelling
  contribution of the liver to clearance: ~10%
  pulmonary extraction ratio, and first-pass metabolism: approximately 28%
[5]; peripheral, Subject 1210
  V4: 21.59 L
[5]; typical single dose 7 mg
  systemic exposure: approximately 0.12 mcg.h/ml

## CC(C)c1cccc(C(C)C)c1OCOP(=O)(O)O [Fospropofol]
[6]; (labelled dose)
  Success rate n/N (%): 18/26 (69.2%)
[7]; 6.5 mg/kg (labelled dose)
  Success rate n/N (%): 137/158 (86.7%)

## Cc1ncc2n1-c1ccc(Cl)cc1C(c1ccccc1F)=NC2 [Midazolam, reference compound]
[2]; 2.5/1.0 mg
  patients who did not respond to treatment and received Propofol as rescue medication: 25%
  Success rate n/N (%): 30/40 (75.0%)
  Time to Procedure Start, mean (SD): 4.80 (3.19) minutes
  Time to ready for discharge, Mean (SD): 17.1 (7.33) mins
  Time to fully alert, Mean (SD): 15.2 (7.43) mins
[6]; 0.02 mg/kg
  Success rate n/N (%): 21/26 (80.8%)
[7]; 0.02 mg/kg
  Success rate n/N (%): 36/52 (69.2%)
